# Assay results: patent US6723733B2, “Sulfonamide and carbamide derivatives of 6(5H)phenanthridinones and their uses” (Guilford Pharmaceuticals, Inc., priority 2000, dated 2004)
# Molecular target: T1, purified recombinant human PARP (Homo sapiens, UniProt P09874)
# T1 construct: purchased Trevigan (Gaithersburg, Md.)
# Test: PARP enzyme assay (IC50), [3H]NAD incorporation
# Assay type: biochemical
# Settings: approximate IC50 values; 25° C., 15 minutes
# Protocol: The reaction is initiated by incubating the mixture at 25° C. After 15 minutes of incubation. the reaction is terminated by adding 500 microliters of ice cold 20% (w/v) trichloroacetic acid. The precipitate formed is transferred onto a glass fiber filter (Packard Unifilter-GF/B) and washed three times with ethanol. After the filter is dried, the radioactivity is determined by scintillation counting.
# T1 sequence (P09874 whole entry): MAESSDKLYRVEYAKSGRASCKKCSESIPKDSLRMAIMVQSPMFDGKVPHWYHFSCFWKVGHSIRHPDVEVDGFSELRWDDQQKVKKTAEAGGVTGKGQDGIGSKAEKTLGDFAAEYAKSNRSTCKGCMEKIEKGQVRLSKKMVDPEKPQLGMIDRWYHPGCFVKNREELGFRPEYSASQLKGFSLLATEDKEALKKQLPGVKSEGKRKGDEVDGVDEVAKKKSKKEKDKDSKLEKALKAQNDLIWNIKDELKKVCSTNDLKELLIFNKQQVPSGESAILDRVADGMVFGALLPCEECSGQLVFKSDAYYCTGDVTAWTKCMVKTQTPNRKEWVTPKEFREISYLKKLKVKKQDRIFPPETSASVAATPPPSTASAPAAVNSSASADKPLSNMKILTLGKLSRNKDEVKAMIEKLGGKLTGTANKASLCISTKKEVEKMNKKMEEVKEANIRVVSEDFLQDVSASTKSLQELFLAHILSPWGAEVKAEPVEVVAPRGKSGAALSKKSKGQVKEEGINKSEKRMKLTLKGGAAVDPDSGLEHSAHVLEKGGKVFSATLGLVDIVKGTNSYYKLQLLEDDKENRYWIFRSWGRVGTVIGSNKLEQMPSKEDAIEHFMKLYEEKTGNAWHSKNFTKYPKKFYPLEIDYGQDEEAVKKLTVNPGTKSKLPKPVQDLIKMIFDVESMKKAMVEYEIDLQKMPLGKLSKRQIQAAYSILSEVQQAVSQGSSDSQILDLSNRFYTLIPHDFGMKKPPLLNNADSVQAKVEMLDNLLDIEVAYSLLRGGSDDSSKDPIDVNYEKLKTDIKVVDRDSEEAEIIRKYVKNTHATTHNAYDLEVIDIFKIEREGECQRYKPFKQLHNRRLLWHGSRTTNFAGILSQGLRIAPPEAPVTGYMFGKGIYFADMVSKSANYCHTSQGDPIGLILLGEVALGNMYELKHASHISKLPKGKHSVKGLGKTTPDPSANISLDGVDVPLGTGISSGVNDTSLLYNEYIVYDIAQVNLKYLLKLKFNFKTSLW
row,SMILES,IC50 [nM]
1,Cc1ccc(S(=O)(=O)Nc2ccc3[nH]c(=O)c4ccccc4c3c2)cc1 [Compound 1],120
2,O=C(c1ccc2c(c1)[nH]c(=O)c1ccccc12)N1CCOCC1 [Compound 2],100000
3,O=c1[nH]c2ccc(S(=O)(=O)NCCN3CCOCC3)cc2c2ccccc12 [Compound 4],140
4,O=C(CCl)Nc1ccc2[nH]c(=O)c3ccccc3c2c1 [Compound 5],80
5,C[N+](C)(C)CC(=O)Nc1ccc2[nH]c(=O)c3ccccc3c2c1 [Compound 7],30
6,O=c1[nH]c2ccc(S(=O)(=O)NCCN(CCO)CCO)cc2c2ccccc12 [Compound 8],60
7,O=C(O)[C@H]1CCCN1C(=O)c1ccc2c(c1)[nH]c(=O)c1ccccc12 [Compound 10],90
8,COC(=O)[C@@H]1CCCN1C(=O)c1ccc2c(c1)[nH]c(=O)c1cc(F)ccc12 [Compound 19],157
9,O=C(O)[C@@H]1CCCN1C(=O)c1ccc2c(c1)[nH]c(=O)c1cc(F)ccc12 [Compound 21],124
10,CCC(C)C(NC(=O)c1ccc2c(c1)[nH]c(=O)c1ccccc12)C(=O)O (centres unmarked) [Compound 26],711
11,O=C(O)CCC(=O)Nc1ccc2[nH]c(=O)c3ccccc3c2c1 [Compound 27],111
12,CCCCC(NC(=O)c1ccc2c(c1)[nH]c(=O)c1ccccc12)C(=O)O (centres unmarked) [Compound 29],54
13,O=C(NC(CO)C(=O)O)c1ccc2c(c1)[nH]c(=O)c1ccccc12 (centres unmarked) [Compound 30],83
14,C[C@H](NC(=O)c1ccc2c(c1)[nH]c(=O)c1ccccc12)C(=O)O [Compound 32],36
15,O=C(N[C@@H](Cc1ccc(F)cc1)C(=O)O)c1ccc2c(c1)[nH]c(=O)c1ccccc12 [Compound 33],45
16,O=C(N[C@@H](Cc1ccccc1)C(=O)O)c1ccc2c(c1)[nH]c(=O)c1ccccc12 [Compound 34],65
17,O=C(N[C@@H](CS)C(=O)O)c1ccc2c(c1)[nH]c(=O)c1ccccc12 [Compound 35],83
18,NCCCC[C@H](NC(=O)c1ccc2c(c1)[nH]c(=O)c1ccccc12)C(=O)O [Compound 37],88

row,SMILES,IC50 [nM]
1,CC(C)[C@H](NC(=O)c1ccc2c(c1)[nH]c(=O)c1ccccc12)C(=O)O [Compound 39],25
2,O=C(NCCN1CCOCC1)c1ccc2c(c1)[nH]c(=O)c1ccccc12 [Compound 40],35
3,COC(=O)[C@@H]1CCCN1C(=O)c1ccc2c(c1)[nH]c(=O)c1ccccc12 [Compound 41],118
4,CN1CCN(S(=O)(=O)c2ccc3c(c2)[nH]c(=O)c2cc(F)ccc23)CC1 [Compound 43],108
5,Cc1cc2[nH]c(=O)c3ccccc3c2cc1NC(=O)CCl [Compound 47],152
6,COC(=O)c1ccc2c(c1)[nH]c(=O)c1cc(F)ccc12 [Compound 48],37
7,NCCN1CCN(S(=O)(=O)c2ccc3[nH]c(=O)c4ccccc4c3c2)CC1 [Compound 51],99
8,Cc1cc2[nH]c(=O)c3ccccc3c2cc1NC(=O)c1cccc(F)c1 [Compound 52],1200
9,O=c1[nH]c2ccc(S(=O)(=O)NCCN3CCCC3)cc2c2ccccc12 [Compound 53],74
10,Cc1cc2[nH]c(=O)c3ccccc3c2cc1NC(=O)C[N+](C)(C)C [Compound 54],195
11,O=c1[nH]c2ccc(S(=O)(=O)NCc3ccncc3)cc2c2ccccc12 [Compound 55],94
12,O=C(NCCCc1ccccc1)c1ccc2c(c1)[nH]c(=O)c1cc(F)ccc12 [Compound 57],415
13,Cc1cc2[nH]c(=O)c3ccccc3c2cc1NC(=O)CCc1ccccc1 [Compound 59],7500
14,Cc1cc2[nH]c(=O)c3ccccc3c2cc1NC(=O)C(C)Br (centres unmarked) [Compound 63],174
15,CCOC(=O)C1CCN(S(=O)(=O)c2ccc3[nH]c(=O)c4ccccc4c3c2)CC1 [Compound 65],200
16,CC(C)N(C(=O)c1ccc2c(c1)[nH]c(=O)c1ccccc12)C(C)C [Compound 66],99
17,CC(=O)NCCN1CCN(S(=O)(=O)c2ccc3[nH]c(=O)c4ccccc4c3c2)CC1 [Compound 68],142

# Second part, the compound after the results:
row,IC50 [nM],SMILES
1,40,O=C(NCCN1CCOCC1)c1ccc2c(c1)[nH]c(=O)c1ccccc12 [Compound 9]
2,399,O=C(NCc1ccccc1)c1ccc2c(c1)[nH]c(=O)c1cc(F)ccc12 [Compound 16]
3,150,O=C(NCCc1ccccc1)c1ccc2c(c1)[nH]c(=O)c1cc(F)ccc12 [Compound 18]
4,33,Cc1cccc2c(=O)[nH]c3cc(C(F)(F)F)c(NC(=O)CCl)cc3c12 [Compound 20]
5,115,O=c1[nH]c2ccc(S(=O)(=O)O)cc2c2ccccc12 [Compound 22]
6,56,CC(NC(=O)c1ccc2c(c1)[nH]c(=O)c1ccccc12)C(=O)O (centres unmarked) [Compound 24]
7,272,O=C(O)CCC(NC(=O)c1ccc2c(c1)[nH]c(=O)c1ccccc12)C(=O)O (centres unmarked) [Compound 25]
8,341,NCCCCC(NC(=O)c1ccc2c(c1)[nH]c(=O)c1ccccc12)C(=O)O (centres unmarked) [Compound 28]
9,69,O=C(Nc1ccc2[nH]c(=O)c3ccccc3c2c1)c1ccc(F)cc1 [Compound 31]
10,31,O=C(N[C@H](C(=O)O)c1ccccc1)c1ccc2c(c1)[nH]c(=O)c1ccccc12 [Compound 38]
11,19,O=C(NC(Cc1ccc2ccccc2c1)C(=O)O)c1ccc2c(c1)[nH]c(=O)c1ccccc12 (centres unmarked) [Compound 42]
12,19,O=c1[nH]c2cc(S(=O)(=O)NCCN3CCOCC3)ccc2c2ccc(F)cc12 [Compound 44]
13,229,CC(=O)Nc1cc2c(cc1C)[nH]c(=O)c1ccccc12 [Compound 45]
14,80,O=C(NCCOCCO)c1ccc2c(c1)[nH]c(=O)c1ccccc12 [Compound 50]
15,5900,Cc1ccc(S(=O)(=O)Nc2cc3c(cc2C)[nH]c(=O)c2ccccc23)cc1 [Compound 56]
16,1100,COC(=O)C1CCCN1S(=O)(=O)c1ccc2[nH]c(=O)c3ccccc3c2c1 (centres unmarked) [Compound 58]
17,11500,COc1ccc(S(=O)(=O)Nc2cc3c(cc2C)[nH]c(=O)c2ccccc23)cc1 [Compound 60]
18,319,O=C(c1ccc(F)cc1)C1CCN(S(=O)(=O)c2ccc3[nH]c(=O)c4ccccc4c3c2)CC1 [Compound 61]
19,449,Cc1cc2[nH]c(=O)c3ccccc3c2cc1NC(=O)Cc1ccc(F)cc1 [Compound 62]
20,43,O=c1[nH]c2ccc(S(=O)(=O)NC3CN4CCC3CC4)cc2c2ccccc12 (centres unmarked) [Compound 64]
21,164,O=c1[nH]c2ccc(S(=O)(=O)N3CCCC(CO)C3)cc2c2ccccc12 (centres unmarked) [Compound 67]
